From patent publication US6541631B1, “Methods of separating FTC isomers and derivatives thereof” (Pharma-Eco Laboratories, Inc., priority 1999, dated 2003)
Blank lines part the entries; values can stand above or below the compound they belong to.

Assay: Solubility of cis-FTC Ester and cis-FTC Alcohol in various solvent systems
Type: physicochemical
Description: Therefore, the solubility of the FTC ester in several solvent systems was determined.
Therefore, the solubility of the cis-FTC Alcohol in several solvent systems was determined.

Solubility (100% acetonitrile, RT): 0.38%
Solubility (100% ethanol, RT): 0.51%
Solubility (100% isopropyl alcohol, RT): 0.38%
Solubility (100% methanol, 40-45° C.): 3.21%
Solubility (100% methanol, RT): 0.77%
Solubility (100% water, RT): 0.37%
SMILES: Nc1nc(=O)n([C@@H]2CS[C@H](CO)O2)cc1F (relative stereo) [cis-FTC Alcohol, cis-5-fluoro-1-{2-(hydroxymethyl)-1,3-oxathiolan-5-yl}cytosine]

Solubility (20% isopropyl alcohol/80% water, 40-45° C.): 3.59%
Solubility (50% ethanol/50% methanol, 20° C.): 9.03%
Solubility (70% water/30% 2-propanol, 20° C.): 2.40%
Solubility (70% water/30% 2-propanol, 35° C.): 5.39%
Solubility (74.6% water/13.99% 2-propanol/11.41% butanol, 20° C.): 3.16%
Solubility (74.6% water/13.99% 2-propanol/11.41% butanol, 35° C.): 10.5%
Solubility (80% water/5.5% 2-propanol/14.5% butanol, 20° C.): 2.55%
Solubility (80% water/10% 2-propanol/10% butanol, 20° C.): 2.27%
Solubility (80% water/10% 2-propanol/10% butanol, 35° C.): 5.94%
Solubility (80% water/15% 2-propanol/5% butanol, 20° C.): 2.57%
Solubility (80% water/15% 2-propanol/5% tetrahydrofuran, 20° C.): 0.89%
Solubility (80% water/20% 2-butanol, 20° C.): 3.00%
Solubility (80% water/20% 2-propanol, 20° C.): 1.60%
Solubility (80% water/20% 2-propanol, 35° C.): 3.80%
Solubility (80% water/20% ethanol, 20° C.): 0.52%
Solubility (80% water/20% methanol, 20° C.): 0.81%
Solubility (80% water/20% tetrahydrofuran, 20° C.): 1.80%
Solubility (85% water/10% 2-propanol/5% tetrahydrofuran, 20° C.): 0.64%
Solubility (85% water/15% 2-propanol, 35° C.): 0.70%
Solubility (85% water/15% dimethylformamide, 20° C.): 1.24%
Solubility (90% water/10% dimethylformamide, 20° C.): 1.13%
Solubility (95% water/5% dimethylformamide, 20° C.): 0.47%
Solubility (100% 2-propanol, 35° C.): 2.68%
Solubility (100% acetonitrile, 40-45 C): 3.85%
Solubility (100% acetonitrile, 50° C.): 6.20%
Solubility (100% acetonitrile, RT): 1.41%
Solubility (100% ethanol, 20° C.): 4.36%
Solubility (100% ethanol, RT, 40-45 C): 1.28%
Solubility (100% ethyl acetate, 20° C.): 3.03%??
Solubility (100% isopropyl alcohol, RT, 40-45° C.): 0.38%
Solubility (100% methanol, 20° C.): 11.73%
SMILES: CCCC(=O)OC[C@@H]1O[C@H](n2cc(F)c(N)nc2=O)CS1 (relative stereo) [cis-FTC Ester, cis-{5-(4-amino-5-fluoro-2-oxo-1(2H)-pyrimidinyl)-1,3-oxathiolan-2-yl}methyl butanoate]
